Experimental data taken from BindingDB's records for patent US20240140938 (Merck Sharp & Dohme, 2024).

Target: T1, Diacylglycerol O-acyltransferase 2 (Homo sapiens, UniProt Q96PD7)
T1 sequence (Q96PD7 whole entry): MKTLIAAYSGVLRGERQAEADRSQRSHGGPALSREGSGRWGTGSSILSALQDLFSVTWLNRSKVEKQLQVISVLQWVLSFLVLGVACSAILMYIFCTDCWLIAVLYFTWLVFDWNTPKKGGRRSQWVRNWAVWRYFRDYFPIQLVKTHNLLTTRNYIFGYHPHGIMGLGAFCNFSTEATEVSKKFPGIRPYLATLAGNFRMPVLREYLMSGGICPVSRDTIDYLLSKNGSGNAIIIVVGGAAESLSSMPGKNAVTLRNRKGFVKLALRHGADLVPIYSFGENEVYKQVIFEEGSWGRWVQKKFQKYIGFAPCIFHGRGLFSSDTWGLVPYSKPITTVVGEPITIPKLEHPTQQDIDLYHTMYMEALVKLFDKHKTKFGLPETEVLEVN
Assay: DGAT2 Enzymatic Activity Assay
Procedure: DGAT2 activity was determined by measuring the amount of enzymatic product 13C18-triolein (13C-1,2,3-Tri(cis-9-octadecenoyl)glycerol) using the membrane prep mentioned above. The assay was carried out in ABgene 384-well assay plates in a final volume of 25 μL at rt.

IC50 [µM] | Structure (SMILES)
0.319 | CC(C)n1nc(-c2cccc(OC(F)F)c2)c2c1C[C@H](C(=O)NC1(C)CS(=O)(=O)C1)CC2 [US20240140938, Example 26]
> 10 | CN1CCC(n2nc(-c3cccc(OC(F)F)c3)c3c2C[C@H](C(=O)N[C@]2(C)CCS(=O)(=O)C2)CC3)CC1 [US20240140938, Example 72]
> 10 | CC(C)n1nc(-c2cccc(-n3cccn3)c2)c2c1C[C@H](C(=O)NC1(C)CS(=O)(=O)C1)CC2 [US20240140938, Example 97]
8.84 | CC(C)n1nc(-c2cccc(C(C)(F)F)c2)c2c1C[C@H](C(=O)NC1(C)CS(=O)(=O)C1)CC2 [US20240140938, Example 102]
